The values below come from patent US9644019B2, “Compounds for treating cardiac damage after ischaemia/reperfusion” (priority 2010, dated 2017).

One assay has as its system EMMPRIN promoter. Briefly: EMMPRIN promoter luciferase reporter (pEMMPRIN-WT), transient transfection of cardiomyocytes. The following applies: for EMMPRIN promoter transcriptional activity: cardiomyocytes transiently transfected with pEMMPRIN-WT. The class given is cell-based, mouse. The protocol: To clone the mouse EMMPRIN promoter, commercial chromosome BAC CH29-603O5 (which contains part of murine chromosome 10), from CHORI (Children's Hospital Oakland Research Institute) was used as a template in PCR reactions with the following oligonucleotides:
The resulting PCR fragment was cloned into the pGL3-Basic vector (Promega) at 5′ position to the luciferase reporter gene (hereinafter referred to as pEMMPRIN-WT).
The transient DNA transfection experiments were carried out by means of using the LIPOFECTAMINE (catatonic-lipid transfection reagent) 2000 reagent as previously described by the manufacturer. The luciferase content in the transfected cells was measured as previously described [Zaragoza C et al. Molecular pharmacology 2002; 62:927-935]. In summary, the cells were transiently transfected with 1 microgram of DNA and 10 μl of LIPOFECTAMINE (catatonic-lipid transfection reagent) 2000 in OPTIMEM culture medium (a modification of Eagle's Minimum Essential Media, buffered with HEPES and sodium bicarbonate, and supplemented with hypoxanthine, thymidine, sodium pyruvate, L-glutamine, trace elements, and growth factors) for 4 hours, after which time they were washed and incubated with fresh culture medium (MEM/10% FCS) for 16 hours. Furthermore, as a control, the cells were co-transfected with a plasmid containing the constitutively active promoter of cytomegalovirus fused with the R-Luciferase gene (Renilla), used as a control. Each sample was therefore evaluated for the content of both P-(firefly) and R-luciferase. […] of the gene product of the reporter gene of the co-transfected control plasmid. The results were normalized for R-Luciferase content.
To analyze in depth the repressive effect of NO on the EMMPRIN transcription, the first 1000 bps of the regulatory region of the EMMPRIN gene, fused to the luciferase reporter gene (pEMMPRIN-WT), were cloned.
(In a reporter assay the amount or activity of a reporter protein is the signal.)

Another assay addresses T1, iNOS (Mus musculus, UniProt P29477).
T1 construct: tissue The Jackson Laboratories (mice); host or cells: living wild-type mice; heart after coronary ischemia/reperfusion
T1 sequence (P29477 1-1144): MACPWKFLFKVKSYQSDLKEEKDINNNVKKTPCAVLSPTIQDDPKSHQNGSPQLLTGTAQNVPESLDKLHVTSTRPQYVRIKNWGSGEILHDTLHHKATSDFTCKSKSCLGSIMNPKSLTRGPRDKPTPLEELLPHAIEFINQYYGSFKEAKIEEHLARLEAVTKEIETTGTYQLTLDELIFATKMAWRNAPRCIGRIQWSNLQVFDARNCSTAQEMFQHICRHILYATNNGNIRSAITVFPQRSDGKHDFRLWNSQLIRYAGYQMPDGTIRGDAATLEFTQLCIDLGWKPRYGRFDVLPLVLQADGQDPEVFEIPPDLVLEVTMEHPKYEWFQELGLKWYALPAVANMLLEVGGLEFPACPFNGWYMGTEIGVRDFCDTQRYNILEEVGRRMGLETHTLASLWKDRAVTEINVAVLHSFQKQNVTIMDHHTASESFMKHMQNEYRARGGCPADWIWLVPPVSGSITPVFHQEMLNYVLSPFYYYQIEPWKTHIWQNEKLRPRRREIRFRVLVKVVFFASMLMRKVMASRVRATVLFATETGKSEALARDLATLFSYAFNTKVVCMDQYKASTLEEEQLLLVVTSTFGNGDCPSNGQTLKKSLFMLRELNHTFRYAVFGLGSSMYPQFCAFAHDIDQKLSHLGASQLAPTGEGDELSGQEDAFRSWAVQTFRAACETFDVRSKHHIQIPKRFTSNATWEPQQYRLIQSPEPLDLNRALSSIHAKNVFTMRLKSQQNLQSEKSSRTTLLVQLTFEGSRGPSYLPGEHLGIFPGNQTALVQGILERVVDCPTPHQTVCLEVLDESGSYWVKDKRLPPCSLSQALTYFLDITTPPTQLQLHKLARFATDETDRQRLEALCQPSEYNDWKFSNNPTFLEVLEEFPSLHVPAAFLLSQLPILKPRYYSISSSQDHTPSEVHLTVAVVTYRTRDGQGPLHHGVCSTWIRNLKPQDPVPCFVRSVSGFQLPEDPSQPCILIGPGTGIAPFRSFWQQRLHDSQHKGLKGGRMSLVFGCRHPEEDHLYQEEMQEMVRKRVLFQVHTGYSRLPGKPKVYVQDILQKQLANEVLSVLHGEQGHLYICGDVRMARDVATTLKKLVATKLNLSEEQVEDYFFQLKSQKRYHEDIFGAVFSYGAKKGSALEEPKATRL
Briefly: Coronary ischemia/reperfusion with pharmacological iNOS inhibition in iNOS wild-type mice. It counts as in vivo. The protocol:
Ischemia was induced by means of the coronary artery ligation in the manner detailed below: twelve week old mice were anesthetized intraperitoneally by means of using ketamine/xylazine (100 mg/kg/10 mg/kg, respectively), intubated with a 1 mm steel tube, and ventilated (2 ml, 80 pulses/minute). After this process, the chest of the mice was opened between the second and third ribs, being kept open by means of the aid of a retractor for mice. The pericardium was then opened to subsequently temporarily ligate the left coronary artery in a region close to its branch by means of using a 6-0 silk suture and for a period of 30 minutes. Evidence of coronary occlusion was clearly shown by means of the discoloration of the left ventricle after the arterial ligation. After 30 minutes, the ligation is removed, the chest closed and the skin sutured. Additionally, a group of control animals (sham) were included in the assays, in which the same method was carried out with the exception of the coronary artery occlusion. To inhibit iNOS in vivo, the iNOS wild-type mice were injected in the tail vein with 2 mg/kg/day of the pharmacological inhibitor of iNOS, 1400W, 30 minutes before ischemia and 24 hours after ischemia/reperfusion. […] To evaluate the effect of anti-EMMPRIN on the ischemic process/reperfusion, the antibodies were administered intravenously for four days before the surgical procedure, after which time the infarct size, cardiac function and EMMPRIN and MMP-9 expression were evaluated.
The heart of the animals was included in paraffin to subsequently obtain sections 4 microns thick as previously described [Tarin et al. mentioned ad supra]. The morphology of the heart was viewed by means of staining with hematoxylin and eosin, whereas collagen deposition was monitored by means of Masson's trichrome staining. […]
Additionally, nitration was detected by means of using anti-3-Nitrotyrosine in sections isolated from those same animals, confirming that the exogenously supplied NO was present in the hearts of the animals treated during the time of the experiment (FIG. 2D, right).

Assay [1] concerns EMMPRIN mRNA. As to the kind of experiment: EMMPRIN mRNA stability assay (actinomycin D) in RAW macrophages. The class given is cell-based, murine. Here is the method: (§1) For this assay, cells were incubated in wells […] in diameter and incubated in the presence of 10 μM of actinomycin D for 16 hours, after which time the cells were treated with diethylenetriamine-NO (DETA-NO) at different times. The RNA of the different experiment times was isolated and both for EMMPRIN and for GAPDH (as a control), their mRNAs were evaluated by means of quantitative real-time RT-PCR.

Assay [2] concerns EMMPRIN mRNA. Briefly: EMMPRIN mRNA, quantitative real-time RT-PCR in HL1 cardiomyocytes. The class given is cell-based, mouse. The following applies: cardiomyocytes in culture, 100 μM DETA-NO. Here is the method:
(§2) (A) Quantitative real-time RT-PCR showing EMMPRIN expression in the hearts of wild-type and iNOS knockout animals after ischemia/reperfusion (n=3 in triplicate, mean±SD *p<0.05 vs iNOS null−). (B) Quantitative real-time RT-PCR showing EMMPRIN expression in HL1 cardiomyocytes in response to the exogenous administration of 100 μM DETA-NO (n=3, mean±SD *p<0.05). (C) Quantitative real-time RT-PCR showing EMMPRIN expression in RAW […] macrophages in culture in response to the exogenous administration of 100 μM of DETA-NO, endogenous NO production (50 μM LPS), or iNOS inhibition by means of adding 100 μM 1400W (n=3 mean±SD). (D) Stability assay of EMMPRIN mRNA in HL-1 cardiomyocytes (left) and in RAW […] macrophages (right) (n=3, mean±SD *p<0.05).
(§3) The HL1 cardiomyocyte cell line was donated by Dr. Antonio Bernad and cultured as described [Ruiz-Meana M et al. Cardiovascular research 2006; 71:715-724]. The RAW […] murine macrophage line was cultured as described [Tarin C et al. Arteriosclerosis, thrombosis, and vascular biology 2009; 29:27-32].

Assay [3] relates to EMMPRIN mRNA. As to the kind of experiment: EMMPRIN mRNA stability assay (actinomycin D) in HL-1 cardiomyocytes. The class given is cell-based, mouse. The following applies: cardiomyocyte cell line, over time. Here is the method: as §1
The test system of assay [4] is EMMPRIN mRNA. Briefly: EMMPRIN mRNA, quantitative real-time RT-PCR in RAW macrophages. It counts as cell-based, murine. The following applies: RAW macrophage cell line, 100 μM DETA-NO. Here is the method: as §2, §3
Background: Quantitative PCR measures a nucleic acid by following its amplification.

For assay [5], the system named is MAEC cells (mouse aortic endothelial cells). Briefly: Internalization of AP-9 nanoparticles by MAEC cells and co-localization with EMMPRIN. The following applies: for internalization into MAEC cells: overnight incubation. It counts as cell-based. The protocol: The MAEC cells were incubated overnight with the AP-9 nanoparticles (NP-AP-9) (20 μg/ml) (right panel) or with non-loaded nanoparticles (NP-NT) (left panel). The MAEC cells were fixed, and EMMPRIN expression was detected using an anti-EMMPRIN antibody. Co-localization between the NP-AP-9 signal and the EMMPRIN signal was found in MAEC cells treated with NP-AP-9 (right panel), but this co-localization was not found in the control nanoparticles. The cores were stained with DAPI.
The MAEC cells were cultured in a black 96-well plate and incubated overnight with different concentrations of nanoparticles loaded with AP-9 (NP-AP9) or nanoparticles without AP-9 (NP-NT). Fluorescence was measured using an IVIS imaging system. The graph on the right represents the intensity of the fluorescence signal of the image on the left.
Nanoparticles containing AP-9 have therapeutic value, because EMMPRIN is inhibited and tissue damage due to proteolytic enzyme activation is reduced.

No end group written: not given here.

Turning to `CC(=O)NC(C(=O)O)C(C)(C)SN=O` (racemic) [SNAP, S-Nitroso-N-acetyl-D,L-penicillamine], the “EMMPRIN promoter transcriptional activity” value with EMMPRIN promoter is on record as “results similar to those generated with DETA-NO”.
On the same count and under the same terms, under `Nc1nc2c(nc(Br)n2[C@@H]2O[C@@H]3COP(=O)(O)O[C@H]3[C@H]2O)c(=O)[nH]1` [8-Br-cGMP] stands “same effect as the NO donor”.
On to `CC(=N)NCc1cccc(CN)c1` [1400W], for which the infarct size entry on iNOS (1400W 2 mg/kg/day tail vein, vs control mice) is on record as “significantly increase”. Moreover, the MMP-9 levels result on iNOS (1400W 2 mg/kg/day, WT 1400WC vs WT 1400W) is on record as “increase”. Moreover, the EMMPRIN levels entry on iNOS (1400W 2 mg/kg/day, vs control mice) is on record as “increase”.
Turning to `NCCN(CCN)/[N+]([O-])=N/O` [DETA-NO, diethylenetriamine-NO], the “EMMPRIN mRNA stability” value is reported as “no effect whatsoever” in the assay on EMMPRIN mRNA [1] and “significant reduction” in the assay with EMMPRIN mRNA [3]. In the assay with EMMPRIN mRNA [2], the “EMMPRIN mRNA levels” value was “significantly reduced”. Further, the EMMPRIN gene expression result in the assay on EMMPRIN mRNA [4] is recorded as “did not induce a significant effect”.
For the compound `O=c1c2nc(Br)n([C@@H]3O[C@@H]4CO[P@@](O)(=S)O[C@H]4[C@H]3O)c2nc2[nH]c(-c3ccccc3)cn12` [Rp-8-Br-PET-cGMPS], the “EMMPRIN promoter transcriptional activity” value in the assay with EMMPRIN promoter is reported as “significant increase”. In the assay on EMMPRIN promoter (cardiomyocytes, pEMMPRIN-WT, PET + NO (100 μM DETA-NO)), the “EMMPRIN promoter activity in combination with NO” value was “partially restoring the negative effect of NO”.
As for `NCCCNCCCCN(CCCN)/[N+]([O-])=N/O` [Spermine-NONOate], the “EMMPRIN promoter transcriptional activity” value with EMMPRIN promoter is “results similar to those generated with DETA-NO”.
In the case of “NP-AP-9: nanoparticles with iron oxide core, single lipid-PEG layer with fluorochrome, and AP-9 peptide bound to the surface (YKLPGHHHHYRP; also: bound to surface of iron oxide nanoparticles with lipid-PEG layer and fluorochrome, attachment site not given here)”, in assay [5] (20 μg/ml overnight), the “co-localization of nanoparticle signal with EMMPRIN signal” value is given as “Co-localization”. In assay [5] (96-well plate, different concentrations overnight, IVIS imaging), the “dose dependence of internalization (fluorescence signal)” value was “dose-dependent manner”. The figures for the “internalization into MAEC cells” value in assay [5] and in assay [5] (listed as Nanoparticles containing AP-9) were “internalization” and “could be internalized”, respectively.
